This passage reports TGI results from PubChem BioAssay (NCI).

SMILES strings stand for the structures.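 Five compound concentrations were applied to cells in 96-well plates for 48 hours; endpoints were derived by simple linear interpolation of the resulting dose-response curve. At the TGI there is no net growth.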

Assay in all cases: DTP human tumour cell line panel, 48 h
Assay [1] concerns SW-620 colon.
Assay [2] concerns LOX IMVI melanoma.
Assay [3] concerns 786-0 renal.
The test system of assay [4] is SF-539 CNS.
The test system of assay [5] is SK-MEL-28 melanoma.
Assay [6] relates to UACC-62 melanoma.
For assay [7], the system named is SF-295 CNS.
Assay [8] deals with HCT-15 colon.

Usually TGI stands for the concentration at which net growth stops. In the case of `COC(=O)C1CCC2(CC1)NC(=O)NC2=O` (configuration not stated), the TGI in assay [1], in assay [2], in assay [3], in assay [4], in assay [5] and in assay [6] was above 100 µM throughout. The same compound displayed a total growth inhibition concentration (TGI) in assay [7] above 100 µM.

As for `O=S(O)CCCSSCCCCSSCCCS(=O)O`, the concentration for total growth inhibition (TGI) in assay [8], in assay [1], in assay [2], in assay [3], in assay [4] and in assay [5] was above 100 µM in each case. Besides, the TGI in assay [6] and in assay [7] was above 100 µM each time.

On to `COc1cc(C2C(C(=O)Nc3ccc(Cl)c(Cl)c3)=C(C)NC(C)=C2C(=O)Nc2ccc(Cl)c(Cl)c2)ccc1O`, for which the concentration for total growth inhibition (TGI) in assay [1] amounted to 29 µM; in assay [2], 33.9 µM; in assay [3] it was 25.3 µM; in assay [4], 24.9 µM; in assay [5] it was 27.3 µM; in assay [7] it was 34.5 µM.

As to `Cc1cn2cc(-c3ccncc3)nc2s1`, the TGI in assay [8] was above 100 µM; in assay [1], above 100 µM; in assay [2], above 84.4 µM; in assay [3], above 100 µM; in assay [4] it was above 100 µM; in assay [5], above 100 µM. In addition, the TGI in assay [6] and in assay [7] was above 100 µM each time.

For the compound `COc1cc(/C=C/C(=O)C(C)(C)C)cc(OC)c1OC`, the concentration for total growth inhibition (TGI) in assay [8] is above 100 µM; in assay [1], 81.2 µM; in assay [2] it was 44 µM; in assay [3] it was above 100 µM; in assay [4], above 100 µM; in assay [5], above 100 µM. In addition, the TGI in assay [6] and in assay [7] was above 100 µM in each case.

As for `CCCCCC1C2C(=O)NC(=O)C1C(=O)NC2=O` (configuration not stated), the TGI in assay [8], in assay [1], in assay [2], in assay [3], in assay [4] and in assay [5] was above 100 µM in each case. Moreover, the concentration for total growth inhibition (TGI) in assay [6] and in assay [7] was above 100 µM each time.

On to `CC(C)CCC[C@@H](C)[C@H]1CC[C@H]2[C@@H]3CC=C4CC(OCCCCN(O)CCCSC5OC(CO)C(O)C(O)C5O)CC[C@]4(C)[C@H]3CC[C@]12C` (some centres not stated), for which the TGI is above 100 µM in assay [8]; 49.4 µM in assay [1]; 50.7 µM in assay [2]; 32.5 µM in assay [3]; 32.8 µM in assay [4]; above 100 µM in assay [5]. The total growth inhibition concentration (TGI) in assay [6] and in assay [7] was above 100 µM throughout.

For the compound `O=c1c2ccccc2nc(-c2ccccc2Cl)n1NC1OC(CO)C(O)C(O)C1O` (configuration not stated), the TGI in assay [8], in assay [1], in assay [3], in assay [4], in assay [5] and in assay [6] was above 100 µM throughout. Further, the concentration for total growth inhibition (TGI) in assay [7] is above 100 µM.

For the compound `CC(=O)NC1C(=O)CC(c2ccccc2)N(C)C1c1ccccc1` (configuration not stated), the concentration for total growth inhibition (TGI) in assay [8], in assay [1], in assay [2], in assay [3], in assay [4] and in assay [5] was above 100 µM each time. Besides, the concentration for total growth inhibition (TGI) in assay [6] and in assay [7] was above 100 µM throughout.

For `Cc1nc2c(=O)n(C)c(=O)nc-2n(-c2ccc(Cl)cc2)c1C`, the total growth inhibition concentration (TGI) in assay [8], in assay [1], in assay [3], in assay [4], in assay [5] and in assay [6] was above 100 µM each time. This compound returned a total growth inhibition concentration (TGI) in assay [7] above 100 µM.

`CC1CCCC2(O1)OC1CC(=O)OC1C1=C2C(=O)c2ccccc2C1=O` (configuration not stated): the TGI in assay [8] was determined as 8.04 µM; in assay [1], 6.42 µM; in assay [2], 9.29 µM; in assay [3], 3.85 µM; in assay [4], 19.9 µM; in assay [5], 4.75 µM. Also, the TGI was 5.1 µM in assay [6] and 32 µM in assay [7].

With `O=C1OC2C(O)COC2(OCc2c[nH]c3ccccc23)C1O` (configuration not stated) (tested in a mixture with another compound), the concentration for total growth inhibition (TGI) in assay [8], in assay [1], in assay [2], in assay [3], in assay [4] and in assay [6] was above 100 µM throughout. The TGI in assay [7] was above 100 µM.

As for `O=C(Nc1cccc(Cl)c1)c1cc2cc(N=Nc3ccc(Br)cc3)ccc2oc1=O`, the TGI in assay [8] is above 100 µM; in assay [1], above 100 µM; in assay [2] it was 45.1 µM; in assay [3] it was above 100 µM; in assay [4], above 100 µM; in assay [5], above 100 µM. The TGI in assay [6] was 39.1 µM; in assay [7], above 100 µM.

Take `O=C1c2ccccc2CC1C1(O)C(=O)Nc2c(Cl)cc(Cl)cc21` (configuration not stated): the concentration for total growth inhibition (TGI) in assay [8], in assay [1], in assay [2], in assay [3], in assay [5] and in assay [7] was above 100 µM each time.

`COc1ccc(/C=C(\NC(=O)c2ccccc2)c2nc3ccccc3[nH]2)cc1`: the TGI in assay [8] is above 100 µM; in assay [1], above 100 µM; in assay [3] it was above 100 µM; in assay [4], above 100 µM; in assay [5] it was 37.5 µM; in assay [6], above 100 µM.

For `Cc1ccc(S(=O)(=O)NC2(C=O)CCC(C(C)(C)C)CC2)cc1` (configuration not stated), the TGI in assay [8] was above 100 µM; in assay [1] it was above 100 µM; in assay [3], above 100 µM; in assay [4], above 100 µM; in assay [6], above 100 µM; in assay [7], 94.9 µM.

Regarding `COCC(O)CN1C(N)=NC(O)C1O` (configuration not stated), the TGI in assay [1], in assay [2], in assay [3], in assay [4], in assay [5] and in assay [7] was above 100 µM each time.
